Reference: patent US20250360167A1 (Keryx Biopharmaceuticals, Inc., priority 2013, published 2025)

Legend:
ferritin = test: Phase 3 trial (Example 1): ferritin; assay type: in vivo, human; parameters: Ferritin, Mean / Ferritin, Median / Ferritin, Change from Baseline, Mean / Ferritin, Change from Baseline, Median / Ferritin, LS Mean: unit not given here; details: for Ferritin, Mean / Ferritin, Median / Ferritin, LS Mean / Ferritin, Change from Baseline, Mean / Ferritin, Change from Baseline, Median / Ferritin, Treatment Differences, LS Mean (KRX-0502) − LS Mean (control), (SE): Table 15
Text: Iron studies including serum iron, ferritin, TSAT, and total iron-binding capacity were done at Screening (Visit 0); at the Randomization Visit (Visit 4); at Visits 7 (Week 4), 9 (Week 8), 11 (Week 12), 12 (Week 16), 13 (Week 20), 14 (Week 24), 15 (Week 28), 16 (Week 32), 17 (Week 36), 18 (Week 40), 19 (Week 44), 20 (Week 48), and 21 (Week 52) of the 52-week Safety Assessment Period; and at Visit 25 (Week 56) of the Efficacy Assessment Period.
Change from baseline in ferritin at Week 52 as compared to baseline (Visit 4). This variable will be analyzed using LOCF methodology. ANCOVA will be employed. The model will include treatment (fixed effect), and baseline (covariate). A sensitivity analysis will be performed using MMRM method.
• 1. Change in serum calcium concentration at Weeks 12, 24, 36, 48, and 52 as compared to baseline (Visit 4). This variable will be analyzed using LOCF methodology. ANCOVA will be employed. The model will include treatment (fixed effect), and baseline (covariate). • 2. Change in ferritin, and TSAT at Weeks 12, 24, 36 and 48 as compared to baseline (Visit 4). This variable will be analyzed using LOCF methodology. ANCOVA will be employed. The model will include treatment (fixed effect), and baseline (covariate). • 3. Change in serum iron and TIBC at Weeks 12, 24, 36, 48, and 52 as compared to baseline (Visit 4). This variable will be analyzed using LOCF methodology. ANCOVA will be employed. The model will include treatment (fixed effect), and baseline (covariate). • 4. Change in Ca x P product at Weeks 12, 24, 36, 48, and 52 as compared to baseline (Visit 4). This variable will be analyzed using LOCF methodology. ANCOVA will be employed. The model will include treatment (fixed effect), and baseline (covariate). • 5. Change in iPTH at Weeks 12, 36, 52, and 56 as compared to baseline (Visit 4). This variable will be analyzed using LOCF methodology. ANCOVA will be employed. The model will include treatment (fixed effect), and baseline (covariate). • 6. Change in serum […], vitamin A, vitamin B-12, vitamin E, vitamin K and folic acid at Weeks 12, 36, and 52 as compared to baseline (Visit 4). This variable will be analyzed using LOCF methodology. ANCOVA will be employed. The model will include treatment (fixed effect), and baseline (covariate). • 7. Change in serum bicarbonate concentration at Weeks 12, 36, and 52 as compared to baseline (Visit 4). This variable will be analyzed using LOCF methodology. ANCOVA will be employed. The model will include treatment (fixed effect), and baseline (covariate). • 8. Change in IV iron intake at Weeks 12, 24, 36, 48, and 52 as compared to baseline (Visit 4). This variable will be analyzed using LOCF methodology. ANCOVA will be employed. The model will include treatment (fixed effect), and baseline (covariate). • 9. Change in the use of EPO (ESA) administered at Weeks 12, 24, 36, 48, and 52 as compared to baseline (Visit 4). This variable will be analyzed using LOCF methodology. ANCOVA will be employed. The model will include treatment (fixed effect), and baseline (covariate). • 10. Change in the use of Vitamin D supplementation (and its analogs) and Sensipar (cinacalcet) at Weeks 12, 24, 36, 48, and 52 as compared to baseline (Visit 4). This variable will be analyzed using LOCF methodology. ANCOVA will be employed. The model will include treatment (fixed effect), and baseline (covariate). • 11. Change in LDL, HDL, and triglycerides at Weeks 12, 36, and 52 as compared to baseline (Visit 4). This variable will be analyzed using LOCF methodology. ANCOVA will be employed. The model will include treatment (fixed effect), and baseline (covariate).

[1] = test system: intact fibroblast growth factor 23 (FGF23); test: Phase 2 trial (Example 2): intact FGF-23; assay type: in vivo, human; details: n = 63
Description: Change in calcium x phosphorus product, serum calcium, estimated glomerular filtration rate (eGFR), urinary phosphorus, bicarbonate levels, serum iron, UIBC, TIBC, iPTH, and intact fibroblast growth factor 23 (FGF23) from baseline (Visit 4, Week 0) to the end of treatment (Visit 11, Week 12) are also assessed as secondary endpoints.
The key secondary endpoints of the study were the mean changes in ferritin, hemoglobin and FGF-23 from baseline to the end of the 12-week treatment period versus placebo in the ITT group.

[2] = Day 0 Baseline, Safety Assessment Period

“iron (+3), x (1, 2, 3-propanetricarboxylic acid, 2-hydroxy-), y (H2O) [KRX-0502]” was tested, and the “Mean Ferritin, LS Mean Difference from Active Control Group at Week 52” value (ferritin; ANCOVA, Table C) was 286 ng/mL, the “Mean Ferritin” value (ferritin; Baseline (Day 0), Table C) was 595 ng/mL and the “Ferritin, Mean” value (ferritin; [2]) was 595.00. For the same substance, the “Ferritin, Median” value (ferritin; [2]) was 587.00, the “Mean Ferritin, Change from Baseline at Week 52” value (ferritin; Table C) was 302 ng/mL and the “Ferritin, LS Mean” value (ferritin; Week 12, ANCOVA) was 757.75. The “Mean Ferritin” value (ferritin; Week 12, LOCF, Table C) was 751 ng/mL, the “Ferritin, Change from Baseline, Mean” value (ferritin; Week 12) was 158.88 and the “Ferritin, Change from Baseline, Median” value (ferritin; Week 12) was 123.00. For the same substance, the “Ferritin, Mean” value (ferritin; Week 12) was 751.19, the “Ferritin, Median” value (ferritin; Week 12) was 718.00 and the “Ferritin, Treatment Differences, LS Mean (KRX-0502) − LS Mean (control), (SE)” value (“Ferritin, Treatment Differences, LS Mean … (SE)” below) (ferritin; Week 12) was 112.95 (29.36). The “Ferritin, LS Mean” value (ferritin; Week 24, ANCOVA) was 852.52, the “Mean Ferritin” value (ferritin; Week 24, LOCF, Table C) was 847 ng/mL and the “Ferritin, Change from Baseline, Mean” value (ferritin; Week 24) was 252.49. The “Ferritin, Change from Baseline, Median” value (ferritin; Week 24) was 220.00, the “Ferritin, Mean” value (ferritin; Week 24) was 846.90 and the “Ferritin, Median” value (ferritin; Week 24) was 830.00. For the same substance, the “Ferritin, Treatment Differences, LS Mean … (SE)” value (ferritin; Week 24) was 204.43 (32.84), the “Ferritin, LS Mean” value (ferritin; Week 36, ANCOVA) was 868.11 and the “Mean Ferritin” value (ferritin; Week 36, LOCF, Table C) was 863 ng/mL. The “Ferritin, Change from Baseline, Mean” value (ferritin; Week 36) was 268.77, the “Ferritin, Change from Baseline, Median” value (ferritin; Week 36) was 223.00 and the “Ferritin, Mean” value (ferritin; Week 36) was 863.18. For the same substance, the “Ferritin, Median” value (ferritin; Week 36) was 818.00, the “Ferritin, Treatment Differences, LS Mean … (SE)” value (ferritin; Week 36) was 241.24 (38.27) and the “Ferritin, LS Mean” value (ferritin; Week 48, ANCOVA) was 887.41. The “Mean Ferritin” value (ferritin; Week 48, LOCF, Table C) was 882 ng/mL, the “Ferritin, Change from Baseline, Mean” value (ferritin; Week 48) was 287.69 and the “Ferritin, Change from Baseline, Median” value (ferritin; Week 48) was 233.00. For the same substance, the “Ferritin, Mean” value (ferritin; Week 48) was 882.10, the “Ferritin, Median” value (ferritin; Week 48) was 850.00 and the “Ferritin, Treatment Differences, LS Mean … (SE)” value (ferritin; Week 48) was 270.56 (39.85). The “Ferritin, LS Mean” value (ferritin; Week 52, ANCOVA) was 901.95, the “Mean Ferritin” value (ferritin; Week 52, LOCF, Table C) was 897 ng/mL and the “Ferritin, Change from Baseline, Mean” value (ferritin; Week 52) was 302.11. The “Ferritin, Change from Baseline, Median” value (ferritin; Week 52) was 224.00, the “Ferritin, Mean” value (ferritin; Week 52) was 897.12 and the “Ferritin, Median” value (ferritin; Week 52) was 858.00. For the same substance, the “Ferritin, Treatment Differences, LS Mean … (SE)” value (ferritin; Week 52) was 285.65 (42.76), the “Mean Ferritin, % Change from Baseline” value (ferritin; Week 52, Table C) was 50.8% and the “Mean Intact FGF-23, Baseline” value ([1]; Baseline) was 319 pg/mL. For the same substance, the “Mean Intact FGF-23, End of Treatment (Week 12)” value ([1]; Week 12, last observation carried forward) was 200 pg/mL.
